Where two headings read alike, the source gives them in different places.
Tests used:
Pim-1 = Pim-1 (Homo sapiens (Human), UniProt P11309); test: Pim enzyme assay (HTRF, phosphorylation of biotinylated-BAD (S112) peptide), Pim-1; assay type: biochemical; settings: full length recombinant Pim-1, biotinylated-BAD (S112) peptide, HTRF
Summary of the method: (§1)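 Full-length human Pim-1 or Pim-2 with an N-terminal His6 tag, expressed in Sf9 or E. coli and purified as monomer. HTRF read-out: biotinylated BAD (S112) peptide phosphorylation detected with streptavidin-APC plus Eu-anti-phospho-BAD(S112) antibody, excitation 337 nm, emission 665 nm.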

Pim-2 = Pim-2 (Homo sapiens (Human), UniProt Q9P1W9); test: Pim enzyme assay (HTRF, phosphorylation of biotinylated-BAD (S112) peptide), Pim-2; assay type: biochemical
Pim-2, sequence (Q9P1W9 whole entry): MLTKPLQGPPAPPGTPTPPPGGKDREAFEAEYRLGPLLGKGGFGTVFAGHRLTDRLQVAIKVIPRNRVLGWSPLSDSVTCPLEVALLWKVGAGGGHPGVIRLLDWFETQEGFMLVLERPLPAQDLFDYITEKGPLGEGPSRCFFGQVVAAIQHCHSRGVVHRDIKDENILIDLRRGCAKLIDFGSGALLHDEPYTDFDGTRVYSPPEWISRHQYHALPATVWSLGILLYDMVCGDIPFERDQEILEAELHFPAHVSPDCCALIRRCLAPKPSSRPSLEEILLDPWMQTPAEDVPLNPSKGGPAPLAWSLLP
Summary of the method: as §1

[1] = test system: KMS-12-BM myeloma cell line; test: Pim cell assay: phospho-BAD (S112) and total BAD in KMS-12-BM cells; assay type: cell-based; settings: Homo sapiens, KMS-12-BM, 1 hour and 50 minutes incubation
Summary of the method: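 KMS-12-BM myeloma cells, after overnight culture, got a 10-point compound dose series (0.3% DMSO) for 1 h 50 min at 37 °C. Lysates measured for phospho-BAD (S112) and total BAD by MSD immunoassay; % phosphoprotein = 2×phospho/(phospho+total)×100.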

[2] = full length recombinant Pim-2, biotinylated-BAD (S112) peptide, HTRF, read-out: Pim2_IC50
[3] = 96-well, read-out: Pim-1 IC50 IP
[4] = full length recombinant Pim-2, biotinylated-BAD (S112) peptide, HTRF, 96-well, read-out: Pim-2 IC50 IP

Pim-1, sequence (P11309 whole entry): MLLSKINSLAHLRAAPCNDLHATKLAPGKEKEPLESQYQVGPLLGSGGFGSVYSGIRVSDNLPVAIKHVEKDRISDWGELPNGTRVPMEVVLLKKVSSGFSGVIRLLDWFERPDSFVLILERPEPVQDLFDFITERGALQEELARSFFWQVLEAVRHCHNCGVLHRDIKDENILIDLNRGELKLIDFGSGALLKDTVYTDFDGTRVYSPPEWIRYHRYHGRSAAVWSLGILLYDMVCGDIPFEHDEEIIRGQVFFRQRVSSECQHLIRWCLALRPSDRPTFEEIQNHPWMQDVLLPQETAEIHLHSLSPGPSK

SMILES	IC50 (Pim-1; read-out: Pim_1_IC50)	IC50 (Pim-2; [2])	IC50 ([1]; read-out: KMS12_Cell_IC50)	IC50 (Pim-1; [3])	IC50 (Pim-2; [4])	IC50 ([1]; read-out: KMS-12-BM IC50 IP)	IC50 (Pim-2; read-out: Pim-2 IC50 IP)
C[C@H]1CN(c2ccncc2Nc2ncc3ccc(-c4ccc(S(C)(=O)=O)cc4F)nn23)C[C@@H](N)[C@@H]1O [Example 23, (3R,4R,5S)-3-amino-1-(3-((2-(2-fluoro-4-(methylsulfonyl)phenyl)imidazo[1,5-b]pyridazin-7-yl)amino)-4-pyridinyl)-5-methyl-4-piperidinol]	0.1 nM	0.5 nM	1400 nM	–	–	–	–
Nc1cccc(-c2ccncc2Nc2ncc3ccc(-c4c(F)cccc4F)nn23)c1 [Example 27, N-(4-(3-aminophenyl)-3-pyridinyl)-2-(2,6-difluorophenyl)imidazo[1,5-b]pyridazin-7-amine]	9 nM	121 nM	> 1000 nM	–	–	–	–
Nc1cc(-c2ccncc2Nc2ncc3ccc(-c4c(F)cccc4F)nn23)ccn1 [Example 30, N3′-(2-(2,6-difluorophenyl)imidazo[1,5-b]pyridazin-7-yl)-4,4′-bipyridine-2,3′-diamine]	7 nM	185 nM	21500 nM	–	–	–	–
N[C@H]1CCCN(c2ncncc2Nc2ncc3ccc(-c4c(F)cccc4F)nn23)C1 [Example 36, (S)-N-(4-((3S)-3-amino-1-piperidinyl)-5-pyrimidinyl)-2-(2,6-difluorophenyl)imidazo[1,5-b]pyridazin-7-amine]	–	–	–	19.2 nM	110 nM	> 31600 nM	–
C[C@@H]1CN(c2ccncc2Nc2ncc3ccc(-c4c(F)cccc4F)nn23)C[C@@H](N)[C@H]1O [Example 41, (3R,4S,5R)-3-amino-1-(3-((2-(2,6-difluorophenyl)imidazo[1,5-b]pyridazin-7-yl)amino)-4-pyridinyl)-5-methyl-4-piperidinol]	–	–	–	0.1 nM	0.5 nM	148 nM	–
Cc1cc(N)cc(-c2ccncc2Nc2ncc3ccc(-c4c(F)cccc4F)nn23)c1 [Example 42, N-(4-(3-amino-5-methylphenyl)-3-pyridinyl)-2-(2,6-difluorophenyl)imidazo[1,5-b]pyridazin-7-amine]	–	–	–	8.6 nM	34.4 nM	9860 nM	–
N[C@H]1C[C@@H](F)CN(c2ccncc2Nc2ncc3ccc(-c4c(F)cccc4F)nn23)C1 [Example 48, N-(4-((3S,5R)-3-amino-5-fluoropiperidin-1-yl)pyridin-3-yl)-2-(2,6-difluorophenyl)imidazo[1,5-b]pyridazin-7-amine tris(2,2,2-trifluoroacetate)]	–	–	–	0.8 nM	3.2 nM	983 nM	–
N[C@H]1C[C@@H](F)CN(c2ccncc2Nc2ncc3ccc(-c4ncccc4F)nn23)C1 [Example 53, N-(4-((3S,5R)-3-amino-5-fluoro-1-piperidinyl)-3-pyridinyl)-2-(3-fluoro-2-pyridinyl)imidazo[1,5-b]pyridazin-7-amine]	–	–	–	3.4 nM	10.9 nM	1200 nM	–
C[C@@H]1C[C@H](N)CN(c2ccncc2Nc2ncc3ccc(-c4nccs4)nn23)C1 [Example 62, N-(4-((3S,5R)-3-amino-5-methylpiperidin-1-yl)pyridin-3-yl)-2-(thiazol-2-yl)imidazo[1,5-b]pyridazin-7-amine bis(2,2,2-trifluoroacetate)]	–	–	–	0.3 nM	–	183 nM	0.4 nM
C[C@@H]1C[C@H](N)CN(c2ccncc2Nc2nnc3ccc(-c4c(F)cccc4F)nn23)C1 [Example 90, N-(4-((3S,5R)-3-amino-5-methylpiperidin-1-yl)pyridin-3-yl)-6-(2,6-difluorophenyl)-[1,2,4]triazolo[4,3-b]pyridazin-3-amine bis(2,2,2-trifluoroacetate)]	–	–	–	1 nM	–	509 nM	3.9 nM
N[C@H]1CCCN(c2ccncc2Nc2nnc3ccc(-c4ncccc4F)nn23)C1 [Example 91, N-(4-((3S)-3-amino-1-piperidinyl)-3-pyridinyl)-6-(3-fluoro-2-pyridinyl)[1,2,4]triazolo[4,3-b]pyridazin-3-amine bis(2,2,2-trifluoroacetate)]	–	–	–	5.6 nM	–	11300 nM	30.5 nM

Further lines, with some results ahead:

IC50 (Pim-1; read-out: Pim_1_IC50)	IC50 (Pim-2; [2])	IC50 ([1]; read-out: KMS12_Cell_IC50)	IC50 (Pim-1; [3])	IC50 (Pim-2; [4])	IC50 ([1]; read-out: KMS-12-BM IC50 IP)	SMILES	IC50 (Pim-2; read-out: Pim-2 IC50 IP)
–	–	–	1.5 nM	6.4 nM	1760 nM	N[C@H]1CCCN(c2ccncc2Nc2ncc3ccc(-c4ccccn4)nn23)C1 [Example 64, (S)-N-(4-(3-aminopiperidin-1-yl)pyridin-3-yl)-2-(pyridin-2-yl)imidazo[1,5-b]pyridazin-7-amine]	–
–	–	–	0.3 nM	1.3 nM	115 nM	C[C@H]1CN(c2ccncc2Nc2ncc3ccc(-c4ncccc4F)nn23)C[C@@H](N)[C@@H]1O [Example 66, (3R,4R,5S)-3-amino-1-(3-((2-(3-fluoropyridin-2-yl)imidazo[1,5-b]pyridazin-7-yl)amino)pyridin-4-yl)-5-methylpiperidin-4-ol]	–
–	–	–	0.1 nM	0.1 nM	86.4 nM	C[C@@H]1C[C@H](N)CN(c2ccncc2Nc2ncc3ccc(-c4cc(C(=O)NC5CC5)ccc4F)nn23)C1 [Example 72, 3-(7-((4-((3S,5R)-3-amino-5-methyl-1-piperidinyl)-3-pyridinyl)amino)imidazo[1,5-b]pyridazin-2-yl)-N-cyclopropyl-4-fluorobenzamide]	–
–	–	–	2.2 nM	6.5 nM	3440 nM	N[C@H]1CCCN(c2ccccc2Nc2ncc3ccc(-c4c(F)cccc4F)nn23)C1 [Example 73, (S)-N-(2-(3-aminopiperidin-1-yl)phenyl)-2-(2,6-difluorophenyl)imidazo[1,5-b]pyridazin-7-amine]	–
–	–	–	0.2 nM	0.5 nM	185 nM	N[C@H]1CCCN(c2ccncc2Nc2ncc3ccc(-c4cc(C(=O)NC5CC5)ccc4F)nn23)C1 [Example 74, 3-(7-((4-((3S)-3-amino-1-piperidinyl)-3-pyridinyl)amino)imidazo[1,5-b]pyridazin-2-yl)-N-cyclopropyl-4-fluorobenzamide]	–
–	–	–	0.9 nM	2.6 nM	620 nM	N[C@H]1CCCN(c2ccncc2Nc2ncc3ccc(-c4ncccc4Cl)nn23)C1 [Example 78, (S)-N-(4-(3-aminopiperidin-1-yl)pyridin-3-yl)-2-(3-chloropyridin-2-yl)imidazo[1,5-b]pyridazin-7-amine]	–
–	–	–	0.2 nM	0.5 nM	132 nM	C[C@@H]1C[C@H](N)CN(c2ccncc2Nc2ncc3ccc(-c4ncccc4Cl)nn23)C1 [Example 79]	–
–	–	–	3.5 nM	5.3 nM	1350 nM	CN(C)C(=O)c1ccc(F)c(-c2ccc3cnc(Nc4cnccc4N4CCC[C@H](N)C4)n3n2)c1 [Example 89, (S)-3-(7-((4-(3-aminopiperidin-1-yl)pyridin-3-yl)amino)imidazo[1,5-b]pyridazin-2-yl)-4-fluoro-N,N-dimethylbenzamide tetra(2,2,2-trifluoroacetate)]	–
–	–	–	1.6 nM	10.6 nM	2200 nM	C[C@@H]1C[C@H](N)CN(c2ccncc2Nc2nnc3ccc(-c4ncccc4F)nn23)C1 [Example 92, N-(4-((3S,5R)-3-amino-5-methyl-1-piperidinyl)-3-pyridinyl)-6-(3-fluoro-2-pyridinyl)[1,2,4]triazolo[4,3-b]pyridazin-3-amine]	–
